Key:
XBP1 mRNA splicing = XBP1 mRNA splicing in INS-1 cells conditionally overexpressing IRE1α (Dox); type: cell-based, rat; details: 5 ng/mL Dox; 20 μM for XBP1s immunoblot
Experimental: (§1) RNA Isolation, Quantitative Real-Time PCR, and Primers
(§2) INS-1 or isogenic IRE1α-overexpressing INS-1 cells were plated onto Poly-D-Lysine coated tissue culture plate and grown for 48 hrs. Inhibitors or DMSO were added to the media and incubated for 1 hour at 37° C. with 5% CO2 prior to addition of ER stress agents or Dox as indicated. RNA was isolated from whole cells using either QIAGEN RNeasy Mini kits or Trizol (Invitrogen) and reverse transcribed as above to obtain total cDNA. Then, XBP-1 primers were used to amplify an XBP-1 amplicon spanning the 26 nt intron from the cDNA samples in a regular 3-step PCR. Thermal cycles were: 5 min at 95° C., 30 cycles of 30 s at 95° C., 30 s at 60° C., and 1 min at 72° C., followed by 72° C. for 15 min, and hold at 4° C. Primers used for XBP-1 mRNA splicing were as follows: sense primer XBP1.3 S (5′ […]-3′ (SEQ ID NO:2)) and antisense primer XBP1.2AS (5′-[…]-3′ (SEQ ID NO:3)). PCR fragments were then digested by PstI, resolved on 3% agarose gels, stained with EtBr and quantified by densitometry using ImageJ (NIH). For standard mRNA detection, generally […] total RNA was reverse transcribed using the QuantiTect Reverse Transcription Kit (QIAGEN). For qPCR, we used SYBR green (QIAGEN) and StepOnePlus Real-Time PCR System (Applied Biosystems). Thermal cycles were: 5 min at 95° C., 40 cycles of 15 sec at 95° C., 30 sec at 60° C. Gene expression levels were normalized to Beta Actin. Primers used for qPCR of RIDD targets were as follows: Beta Actin Fwd: 5′-[…]-3′ (SEQ ID NO:4), Beta Actin Rev: 5′-[…]-3′ (SEQ ID NO:5), Insulin 1 Fwd: 5′-GTCCTCTGGGAGCCCAAG-3′ (SEQ ID NO:6), Insulin 1 Rev: 5′-ACAGAGCCTCCACCAGG-3′ (SEQ ID NO:7), Insulin 2 Fwd: 5′-ATCCTCTGGGAGCCCCGC-3′ (SEQ ID NO:8), Insulin 2 Rev: 5′-AGAGAGCTTCCACCAAG-3′ (SEQ ID NO:9), Blos1 Fwd: 5′-[…]-3′ (SEQ ID NO:10), and Blos1 Rev: 5′-[…]-3′ (SEQ ID NO:11).
RNA was extracted using Trizol (Invitrogen), DNaseI treated, and cDNA products encompassing the intron amplified by QuantiTect Reverse Transcription Kit (Qiagen). sense Primer rXBP Forward (5′-[…]-3′ (SEQ ID NO:12)) and antisense primer rXBP Reverse (5′-[…]-3′ (SEQ ID NO:13)) were used. PCR fragments were digested by PstI, resolved on 3% agarose gels, stained with EtBr, and quantified by densitometry.
XBP1 splicing for FIGS. 33A-33F: RNA was extracted using Trizol (Invitrogen), cDNA products encompassing the intron amplified by QuantiTect Reverse Transcription Kit (Qiagen). Sense Primer rXBP splicing Forward (5′-[…]-3′ (SEQ ID NO:12)) and antisense primer rXBP splicing Reverse (5′-[…]-3′ (SEQ ID NO:13)) were used. PCR fragments were digested by PstI, resolved on 3% agarose gels, stained with EtBr, and quantified by densitometry.

[1] = system: RIDD (IRE1α-dependent mRNA decay); assay: Real-time PCR of RIDD mRNA targets in INS-1 cells overexpressing IRE1α (Dox); type: cell-based, rat; details: 20 μM, 5 ng/mL Dox
Experimental: as §1, §2
Real-Time PCR (Q-PCR) used SYBR green and Step OnePlus Real-Time PCR System (Applied Biosystems). Thermal cycles were: 5 min at 95° C., 40 cycles of 15 s at 95° C., 30 s at 60° C. Gene expression levels were normalized to GAPDH. Q-PCR Sense/antisense primers used: Rat GAPDH, 5′-[…]-3′ (SEQ ID NO:14) and 5′-[…]-3′ (SEQ ID NO:15); Rat Ins1, 5′-GTCCTCTGGGAGCCCAAG-3′ (SEQ ID NO:6) and 5′-ACAGAGCCTCCACCAGG-3′ (SEQ ID NO:7); Rat Pdia4, 5′-CGTCTCGCCCTGATTCGT-3′ (SEQ ID NO:16) and 5′-[…]-3′ (SEQ ID NO:17); Rat Blos1, 5′-[…]-3′ (SEQ ID NO:18) and 5′-TGTCCAGTTCGATGCTCCG-3′ (SEQ ID NO:19).
Real-time PCR for FIGS. 34A-34F: Real-Time PCR (Q-PCR) used SYBR green and Step OnePlus Real-Time PCR System (Applied Biosystems). Thermal cycles were: 5 min at 95° C., 40 cycles of 15 s at 95° C., 30 s at 60° C. Gene expression levels were normalized to GAPDH. Q-PCR Sense/antisense primers used: Rat GAPDH, 5′-[…]-3′ (SEQ ID NO:20) and 5′-[…]-3′ (SEQ ID NO:21); Rat Ins1, 5′-GTCCTCTGGGAGCCCAAG-3′ (SEQ ID NO:6) and 5′-ACAGAGCCTCCACCAGG-3′ (SEQ ID NO:7); Rat Ins2, 5′-ATCCTCTGGGAGCCCCGC-3′ (SEQ ID NO:8) and 5′-AGAGAGCTTCCACCAAG-3′ (SEQ ID NO:9); Rat Pdia4, 5′-[…]-3′(SEQ ID NO:22) and 5′-[…]-3′ (SEQ ID NO:23); Rat Blos1, 5′-[…]-3′ (SEQ ID NO:18) and 5′-TGTCCAGTTCGATGCTCCG-3′ (SEQ ID NO:19).

| Compound | XBP1 mRNA splicing and expression of Xbp1s (XBP1 mRNA splicing) | mRNA decay substrates Blos1, Ins1 and Ins2 [1] |
| --- | --- | --- |
| O=S(=O)(CC(F)(F)F)Nc1ccc(Oc2ncccc2-c2ccnc(N[C@H]3CCCNC3)n2)c2ccccc12 (stereo in doubt) [PAIR1, 2,2,2-trifluoro-N-(4-(3-(2-(piperidin-3-ylamino)pyrimidin-4-yl)pyridin-2-yloxy)naphthalen-1-yl)ethanesulfonamide] | largely preserved | rescued |
| O=S(=O)(CCC(F)(F)F)Nc1ccc(Oc2ncccc2-c2ccnc(NC3CCCNC3)n2)c2ccccc12 (stereo not shown) [KIRA9, 3,3,3-trifluoro-N-(4-(3-(2-(piperidin-3-ylamino)pyrimidin-4-yl)pyridin-2-yloxy)naphthalen-1-yl)propane-1-sulfonamide] | more vigorously inhibited these outputs | rescued |

— patent publication US11884649B2, “IRE1α inhibitors and uses thereof” (The Regents of the University of California, priority 2020, dated 2024)
